Measurements reported in patent US11590139B2, “Substituted aminopurine compounds, compositions thereof, and methods of treatment therewith” (Signal Pharmaceuticals, LLC, priority 2014, dated 2023).
Where two headings read alike, the source gives them in different places. Values belong to the molecule of their own block, whether it stands above or below them.

System: Lox-IMVI melanoma cell line
Experiment: Lox-IMVI anti-proliferative assay (growth inhibition, Cell Titer-Glo)
Type: cell-based, human
Conditions: Homo sapiens
Outline: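 First, compound was dispensed as a 10-point 3-fold series (0.5 nM–10 μM, duplicate). Then cells in RPMI + 10% FBS were added and grown 72 h at 37 °C with 0.2% DMSO. Finally, ATP luminescence was read and IC50 calculated versus DMSO control.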

[1] = IC50 activity level in the cell-based Lox-IMVI anti-proliferative assay, read-out: Activity
[2] = Lox-IMVI anti-proliferative assay, IC50 activity level, read-out: Activity
[3] = Lox-IMVI melanoma cell line, anti-proliferative assay, read-out: Activity (IC50 activity level)

SMILES: NC(=O)[C@H]1CC[C@@H](n2c(Nc3c(Cl)cc(F)cc3Cl)nc3cnc(N[C@@H]4CCOC4)nc32)CC1 [Example 222, (1S,4s)-4-(8-(2,6-dichloro-4-fluorophenylamino)-2-((R)-tetrahydrofuran-3-ylamino)-9H-purin-9-yl)cyclohexanecarboxamide]
IC50 [1]: 500 to 1000 nM

SMILES: C[C@@H]1CC[C@@H](Nc2ncc3nc(Nc4c(F)cc(F)cc4Cl)n([C@H]4CC[C@@H](C(N)=O)CC4)c3n2)C[C@H]1O [Example 344, (1S,4s)-4-(8-(2-chloro-4,6-difluorophenylamino)-2-((1R,3R,4R)-3-hydroxy-4-methylcyclohexylamino)-9H-purin-9-yl)cyclohexanecarboxamide]
IC50 [1]: > 1000 nM

SMILES: C[C@@H](CO)Nc1ncc2nc(Nc3c(F)cc(C#N)cc3Cl)n([C@H]3CC[C@@H](C(N)=O)CC3)c2n1 [Example 395, (1R,4s)-4-(8-(2-chloro-4-cyano-6-fluorophenylamino)-2-((S)-1-hydroxypropan-2-ylamino)-9H-purin-9-yl)cyclohexanecarboxamide]
IC50 [1]: > 1000 nM

SMILES: C[C@]1(C(N)=O)CC[C@H](n2c(Nc3c(F)cc(F)cc3F)nc3cnc(NC4CCCC4)nc32)CC1 [Example 494, (1r,4r)-4-(2-(cyclopentylamino)-8-(2,4,6-trifluorophenylamino)-9H-purin-9-yl)-1-methylcyclohexanecarboxamide]
IC50 [2]: > 1000 nM

SMILES: CC[C@@H](CO)Nc1ncc2nc(Nc3c(F)cc(Cl)cc3F)n([C@H]3CC[C@@H](C(N)=O)CC3)c2n1 [Example 146, (1R,4s)-4-(8-(4-chloro-2,6-difluorophenylamino)-2-((S)-1-hydroxybutan-2-ylamino)-9H-purin-9-yl)cyclohexanecarboxamide]
IC50 [1]: 500 to 1000 nM

SMILES: NC(=O)[C@H]1CC[C@@H](n2c(Nc3c(Cl)cccc3Cl)nc3cnc(NC4CCC4)nc32)CC1 [Example 51]
IC50 [1]: 500 to 1000 nM

SMILES: C[C@@H](CO)Nc1ncc2nc(Nc3c(F)cc(Cl)cc3F)n([C@H]3CC[C@@H](C(N)=O)CC3)c2n1 [Example 169, (1R,4s)-4-(8-(4-chloro-2,6-difluorophenylamino)-2-((S)-1-hydroxypropan-2-ylamino)-9H-purin-9-yl)cyclohexanecarboxamide]
IC50 [1]: 500 to 1000 nM

SMILES: NC(=O)[C@H]1CC[C@@H](n2c(Nc3c(Cl)cc(Cl)cc3Cl)nc3cnc(NCC(F)(F)CO)nc32)CC1 [Example 450, (1s,4s)-4-(2-(2,2-difluoro-3-hydroxypropylamino)-8-(2,4,6-trichlorophenylamino)-9H-purin-9-yl)cyclohexanecarboxamide]
IC50 [2]: > 1000 nM

SMILES: CS(=O)(=O)N1CCC(Nc2ncc3nc(Nc4ccc(Cl)c(F)c4F)n([C@H]4CC[C@@H](C(N)=O)CC4)c3n2)CC1 [Example 298, (1s,4s)-4-(8-(4-chloro-2,3-difluorophenylamino)-2-(1-(methylsulfonyl)piperidin-4-ylamino)-9H-purin-9-yl)cyclohexanecarboxamide]
IC50 [1]: > 1000 nM

SMILES: NC(=O)[C@H]1CC[C@@H](n2c(Nc3c(F)cc(F)cc3Cl)nc3cnc(NC4CC5(COC5)C4)nc32)CC1 [Example 175, (1s,4s)-4-(2-(2-oxaspiro[3.3]heptan-6-ylamino)-8-(2-chloro-4,6-difluorophenylamino)-9H-purin-9-yl)cyclohexanecarboxamide]
IC50 [1]: 500 to 1000 nM

SMILES: NC(=O)[C@H]1CC[C@@H](n2c(Nc3c(Cl)cc(Cl)cc3Cl)nc3cnc(N[C@@H]4CCC[C@@H](O)C4)nc32)CC1 [Example 415, (1S,4s)-4-(2-((1R,3R)-3-hydroxycyclohexylamino)-8-(2,4,6-trichlorophenylamino)-9H-purin-9-yl)cyclohexanecarboxamide]
IC50 [2]: 500 to 1000 nM

SMILES: CC[C@@H](CO)Nc1ncc2nc(Nc3c(Cl)cc(C#N)cc3Cl)n([C@H]3CC[C@@H](C(N)=O)CC3)c2n1 [Example 432, (1R,4s)-4-(8-(2,6-dichloro-4-cyanophenylamino)-2-((S)-1-hydroxybutan-2-ylamino)-9H-purin-9-yl)cyclohexanecarboxamide]
IC50 [2]: 500 to 1000 nM

SMILES: CC[C@@H](CO)Nc1ncc2nc(Nc3cccc(Cl)c3F)n([C@H]3CC[C@@H](C(N)=O)CC3)c2n1 [Example 150, (1R,4s)-4-(8-(3-chloro-2-fluorophenylamino)-2-((S)-1_ hydroxybutan-2-ylamino)-9H-purin-9-yl)cyclohexanecarboxamide]
IC50 [1]: > 1000 nM

Second part, the molecule after the results:

IC50 [2]: > 1000 nM
SMILES: N#Cc1cc(Cl)c(Nc2nc3cnc(N[C@H]4CCCC[C@H]4O)nc3n2[C@H]2CC[C@@H](C(N)=O)CC2)c(Cl)c1 [Example 519, (1R,4s)-4-(8-(2,6-dichloro-4-cyanophenylamino)-2-((1S,2R)-2-hydroxycyclohexylamino)-9H-purin-9-yl)cyclohexanecarboxamide]

IC50 [3]: > 1000 nM
SMILES: N#Cc1cc(F)c(Nc2nc3cnc(N[C@@H]4CCCN(Cc5ccccc5)C4)nc3n2[C@H]2CC[C@@H](C(N)=O)CC2)c(Cl)c1 [Example 777, (1S,4s)-4-(2-((R)-1-benzylpiperidin-3-ylamino)-8-(2-chloro-4-cyano-6-fluorophenylamino)-9H-purin-9-yl)cyclohexanecarboxamide]

IC50 [3]: 500 to 1000 nM
SMILES: C[C@]1(C(N)=O)CC[C@@H](n2c(Nc3c(Cl)cc(Cl)cc3Cl)nc3cnc(N[C@H]4CC[C@H](O)C4)nc32)CC1 [Example 645, (1R,4s)-4-(2-((1S,3S)-3-hydroxycyclopentylamino)-8-(2,4,6-trichlorophenylamino)-9H-purin-9-yl)-1-methylcyclohexanecarboxamide]

IC50 [3]: < 250 nM
SMILES: C[C@]1(C(N)=O)CC[C@@H](n2c(Nc3c(F)cc(Cl)cc3Cl)nc3cnc(N[C@H]4CCOC[C@H]4F)nc32)CC1 [Example 716, (1R,4s)-4-(8-(2,4-dichloro-6-fluorophenylamino)-2-((3S,4S)-3-fluorotetrahydro-2H-pyran-4-ylamino)-9H-purin-9-yl)-1-methylcyclohexanecarboxamide]

IC50 [3]: 500 to 1000 nM
SMILES: NC(=O)[C@H]1CC[C@@H](n2c(Nc3c(Cl)cc(Cl)cc3Cl)nc3cnc(N[C@@H]4CCCN(C(=O)Nc5ccccc5)C4)nc32)CC1 [Example 779, (R)-3-(9-((1s,4S)-4-carbamoylcyclohexyl)-8-(2,4,6-trichlorophenylamino)-9H-purin-2-ylamino)-N-phenylpiperidine-1-carboxamide]

IC50 [3]: > 1000 nM
SMILES: NC(=O)[C@H]1CC[C@@H](n2c(Nc3c(F)cc(F)cc3F)nc3cnc(NC[C@@H]4CCCC[C@@H]4O)nc32)CC1 [Example 652, (1R,4s)-4-(2-(((1S,2S)-2-hydroxycyclohexyl)methylamino)-8-(2,4,6-trifluorophenylamino)-9H-purin-9-yl)cyclohexanecarboxamide]

IC50 [3]: > 1000 nM
SMILES: NC(=O)[C@H]1CC[C@@H](n2c(Nc3c(F)cc(F)cc3Cl)nc3cnc(N[C@@H]4CCCN(C(=O)Nc5ccccc5)C4)nc32)CC1 [Example 778, (R)-3-(9-((1s,4S)-4-carbamoylcyclohexyl)-8-(2-chloro-4,6-difluorophenylamino)-9H-purin-2-ylamino)-N-phenylpiperidine-1-carboxamide]

IC50 (Lox-IMVI anti-proliferative assay, cell-based, read-out: Activity (IC50 activity level)): > 1000 nM
SMILES: CC(=O)N1CCC[C@@H](Nc2ncc3nc(Nc4c(Cl)cc(F)cc4Cl)n([C@H]4CC[C@@H](C(N)=O)CC4)c3n2)C1 [Example 799, (1S,4s)-4-(2-((R)-1-acetylpiperidin-3-ylamino)-8-(2,6-dichloro-4-fluorophenylamino)-9H-purin-9-yl)cyclohexanecarboxamide]
